Reference: patent US11607422B2, “Uttroside B and derivatives thereof as therapeutics for hepatocellular carcinoma” (Rajiv Gandhi Centre for Biotechnology, an Autonomous …, priority 2016, dated 2023)
pIC50: −log10 of the molar value.

Experiments:
PC-12 = conditions: literature ref 13; read-out: IC50, cytotoxicity against PC-12; cited from earlier work
[1] = tested on: autophagy related proteins in Hep3B cells; test: Western blot of autophagy related proteins in Hep3B cells; type: cell-based; conditions: time dependent
Protocol: Western blot analysis. Approximately 0.5×10^6 cells were grown on 60 mm culture plates and exposed to drugs as indicated for the desired time. The cells were then scraped out, washed in ice cold 1× PBS and pelleted down at 13000 rpm for 2 min. The pelleted cells were suspended in 150 μL of ice-cold whole cell lysis buffer[(20 mMTris of pH 7.4, 250 mM NaCl, 2 mM EDTA, 0.1% Triton, 1 mM DTT (1,4-dithiothreitol), 0.5 mM PMSF, 4 mM sodium orthovanadate, aprotinin (5 mg m/L) and leupeptin (5 mg m/L)] and kept in ice for 30 min, with intermittent vortexing every 5 min. After incubation, the lysate was centrifuged at 13000 rpm for 10 min at 4° C. and the supernatant was collected. The total protein content in the lysate was estimated by Bradford's method, and was then denatured by boiling with 5× loading dye before separating the proteins by SDSpolyacrylamidegel electrophoresis (SDS-PAGE). […]

C[C@H](CC[C@@]1(O)O[C@H]2C[C@H]3[C@@H]4CC[C@H]5C[C@@H](O[C@@H]6O[C@H](CO)[C@H](O[C@@H]7O[C@H](CO)[C@@H](O)[C@H](O[C@@H]8OC[C@@H](O)[C@H](O)[C@H]8O)[C@H]7O[C@@H]7O[C@H](CO)[C@@H](O)[C@H](O)[C@H]7O)[C@H](O)[C@H]6O)CC[C@]5(C)[C@H]4CC[C@]3(C)[C@H]2[C@@H]1C)CO[C@@H]1O[C@H](CO)[C@@H](O)[C@H](O)[C@H]1O [Uttroside B]
pIC50 (PC-12): 5.92 | expression of autophagy related proteins, Hep3B [1]: induced Atg5, Atg7 and LC3 in a time dependent manner
